# Where no end group is shown, it is not given here.
# Experiments:
# [1] = target: T1, human orexin type 2 receptor (hOX2R) (Homo sapiens, UniProt O43614); assay: Orexin type 2 receptor agonist activity (FLIPR TETRA intracellular Ca2+ fluorescence); format: cell-based; conditions: for EC50: CHO cells expressing hOX2R, area of Ca2+ fluorescence over 2 min, read-out: hOx2 pEC50 (converted); for Emax at 10 µM: value at 10 μM, dilution buffer = 0%, 10 nM human orexin A = 100%, read-out: hOx2 Emax
# T1 construct: expressed in transfected cells
# T1 sequence (O43614 1-444): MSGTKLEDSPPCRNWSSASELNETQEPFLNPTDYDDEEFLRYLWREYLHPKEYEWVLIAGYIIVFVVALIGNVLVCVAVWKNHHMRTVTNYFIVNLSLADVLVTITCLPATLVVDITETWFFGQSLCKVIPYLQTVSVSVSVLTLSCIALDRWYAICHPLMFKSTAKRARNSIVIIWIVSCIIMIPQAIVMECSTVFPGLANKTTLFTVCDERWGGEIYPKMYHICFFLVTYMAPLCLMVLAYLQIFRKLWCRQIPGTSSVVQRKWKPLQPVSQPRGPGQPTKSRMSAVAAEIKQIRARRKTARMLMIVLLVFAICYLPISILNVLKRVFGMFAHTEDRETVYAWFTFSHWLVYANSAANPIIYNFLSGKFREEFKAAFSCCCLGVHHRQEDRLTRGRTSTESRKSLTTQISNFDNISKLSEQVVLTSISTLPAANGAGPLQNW
# Protocol: Stable cell line generation. Obtainment of cells stably expressing either human orexin type 2 or human orexin type 1 receptor: to obtain a stable cell line the Orexin receptor cDNA was inserted into pcDNA3.1(+) plasmid vector and clones identified by G418 drug resistance selection. […] A single clone for OX2R-CHO and OX1R-CHO were grown in bulk and frozen to generate a cell bank for routine screening.
# Measurement of orexin type 2 receptor agonist activity. Chinese hamster ovary (CHO) cells expressing human orexin type 2 receptor (hOX2R) or human orexin […] were seeded in each well of 384 well black clear bottom plates (BD Flacon) at 10,000 cells per well and cultured for 24 hr in an Ham's F12 (Gibco) medium containing 10% fetal calf serum (Sigma Aldrich) under the conditions of 37° C., 5% CO2. After removal of the medium, 50 μl of assay buffer 1 (0.1% bovine serum albumin (Sigma Aldrich), 20 mM HEPES (Molecular Dimensions), […] (Sigma Aldrich), 1× Calcium 5 dye (Molecular Devices) in Hank's balanced salt solution (Invitrogen)) was added, and the cells were incubated for 60 min under the conditions of 37° C., 5% CO2. A test compound was dissolved in dimethyl sulfoxide (Sigma Aldrich) to 10 mM, and then diluted with assay buffer 2 (20 mM HEPES, Hank's balanced salt solution, 0.1% bovine serum albumin). For the reaction, a test compound solution (10 μl) was added using Fluorescent Imaging Plate Reader TETRA (FLIPR TETRA: manufactured by Molecular Devices), a fluorescence value (excitation wavelength 488 nm, measurement wavelength 570 nm) of each well was measured every one second for 2 min, and the agonist activity was determined using the area of the fluorescence value as an indicator of intracellular Ca^2+ concentration. The agonist activity of the test compound was calculated assuming that the fluorescence value of the well added with only the dilution buffer was 0% and the fluorescence value of the well added with 10 nM human orexin A (Tocris) buffer was 100%. As used herein, Emax indicates the value at 10 μM concentration when orexin A is converted to a full agonist (maximum value of agonist activity: 100%).
# mice = conditions: cited from earlier work
# [2] = ICV, 3 nmol, orexin-neuron ablated mice
EC50 [1] [µM],Emax at 10 µM [1] [%],Compound,other results
> 0.1,≥ 90,"CCS(=O)(=O)NC1CCN(C(=O)C(C)C)C1Cc1cccc(C#CC2(C)COC2)c1 (racemic) [Compound 1-9, N-(1-isobutyryl-2-(3-((3-methyloxetan-3-yl)ethynyl)benzyl)pyrrolidin-3-yl)ethane-sulfonamide]",
> 0.1,70 to 80,"CCS(=O)(=O)NC1CCN(C(=O)C(C)C)C1Cc1cccc(C#CC2COC2)c1 (racemic) [Compound 1-10, N-(1-isobutyryl-2-(3-(oxetan-3-ylethynyl)benzyl)pyrrolidin-3-yl)ethanesulfonamide]",
> 0.1,70 to 80,"CCS(=O)(=O)NC1CCN(C(=O)C(C)C)C1Cc1cccc(C#CCOC)c1F (racemic) [Compound 1-11, N-(2-(2-fluoro-3-(3-methoxyprop-1-yn-1-yl)benzyl)-1-isobutyrylpyrrolidin-3-yl)ethanesulfonamide]",
> 0.1,≥ 90,"CCS(=O)(=O)NC1CCN(C(=O)C(C)C)C1Cc1cccc(C#CC(C)(C)C)c1 (racemic) [Compound 1-12, N-(2-(3-(3,3-dimethylbut-1-yn-1-yl)benzyl)-1-isobutyrylpyrrolidin-3-yl) ethane-sulfonamide]",
> 0.1,≥ 90,"CCS(=O)(=O)NC1CCN(C(=O)C(C)C)C1Cc1cccc(C#CC2CCCC2)c1 (racemic) [Compound 1-13, N-(2-(3-(cyclopentylethynyl)benzyl)-1-isobutyrylpyrrolidin-3-yl)ethanesulfonamide]",
> 0.1,≥ 90,"CCS(=O)(=O)NC1CCN(C(=O)C(C)C)C1Cc1cccc(C#CC2CC2)c1 (racemic) [Compound 1-14, N-(2-(3-(cyclopropylethynyl)benzyl)-1-isobutyrylpyrrolidin-3-yl) ethanesulfonamide]",
,≥ 90,"CCS(=O)(=O)NC1CCN(C(=O)C(C)C)C1Cc1cccc(C#CC2CC2)c1F (racemic) [Compound 1-20, N-(2-(3-(cyclopropylethynyl)-2-fluorobenzyl)-1-isobutyrylpyrrolidin-3-yl)ethanesulfonamide]",
> 0.1,80 to 90,"CCS(=O)(=O)NC1CCN(C(=O)C(C)(C)O)C1Cc1cccc(C#CC2CC2)c1 (racemic) [Compound 1-21, N-(2-(3-(cyclopropylethynyl)benzyl)-1-(2-hydroxy-2-methylpropanoyl)pyrrolidin-3-yl)ethanesulfonamide]",
> 0.1,≥ 90,"CCS(=O)(=O)NC1CCN(C(=O)C(C)(C)O)C1Cc1cccc(C#Cc2ccccc2)c1 (racemic) [Compound 1-22, N-(1-(2-hydroxy-2-methylpropanoyl)-2-(3-(phenylethynyl)benzyl)-pyrrolidin-3-yl)ethanesulfonamide]",
,≥ 90,"CC1(C#Cc2cccc(C[C@H]3[C@@H](NS(C)(=O)=O)CCN3C(=O)[C@H]3CCO3)c2)CC1 [Compound 1-3, N-((2S,3S)-2-(3-((1-methylcyclopropyl)ethynyl)benzyl)-1-((R)-oxetane-2-carbonyl)pyrrolidin-3-yl)methanesulfonamide]",

# The remaining lines, values behind:
Compound,EC50 [1] [µM],Emax at 10 µM [1] [%],other results
"CCS(=O)(=O)NC1CCN(C(=O)N2CCC2)C1Cc1cccc(C#CC2CC2)n1 (racemic) [Compound 1-17, N-(1-(azetidine-1-carbonyl)-2-((6-(cyclopropylethynyl)pyridin-2-yl)methyl)pyrrolidin-3-yl)ethanesulfonamide]",> 0.1,80 to 90,
"CCS(=O)(=O)NC1CCN(C(=O)N2CCC2)C1Cc1cccc(C#CC2CC2)c1F (racemic) [Compound 1-18, N-(1-(azetidine-1-carbonyl)-2-(3-(cyclopropylethynyl)-2-fluorobenzyl)pyrrolidin-3-yl)ethanesulfonamide]",,≥ 90,
"CCS(=O)(=O)NC1CCN(C(=O)C2CCC2)C1Cc1cccc(C#CC2CC2)c1F (racemic) [Compound 1-19, N-(1-(cyclobutanecarbonyl)-2-(3-(cyclopropylethynyl)-2-fluorobenzyl)pyrrolidin-3-yl)ethanesulfonamide]",,≥ 90,
"CC1(C#Cc2cccc(C[C@@H]3[C@H](NS(C)(=O)=O)CCCN3C(=O)[C@H]3CCO3)c2F)CC1 (single isomer, unassigned) [Compound 1-4]",> 0.1,60 to 70,
"CC1(C#Cc2cccc(C[C@H]3[C@@H](NS(C)(=O)=O)CCCN3C(=O)[C@H]3CCO3)c2F)CC1 (single isomer, unassigned) [Compound 1-5]",,≥ 90,
"CCS(=O)(=O)N[C@@H]1CCN(C(=O)N2CCC2)[C@@H]1Cc1cccc(C#CC2CC2)c1F (single isomer, unassigned) [Compound 1-15]",> 0.1,70 to 80,
"CCS(=O)(=O)N[C@H]1CCN(C(=O)N2CCC2)[C@H]1Cc1cccc(C#CC2CC2)c1F (single isomer, unassigned) [Compound 1-16]",0.001 to 0.01,≥ 90,
"CC1(C#Cc2cccc(C[C@H]3[C@@H](NS(C)(=O)=O)CCN3C(=O)[C@H]3CCO3)c2F)CC1 [Compound 1-1, N-((2S,3S)-2-(2-fluoro-3-((1-methylcyclopropyl)ethynyl)benzyl)-1-((R)-oxetane-2-carbonyl)pyrrolidin-3-yl)methanesulfonamide]",,≥ 90,
"CS(=O)(=O)N[C@H]1CCN(C(=O)[C@H]2CCO2)[C@H]1Cc1cccc(C#CC2(C(F)(F)F)CC2)c1F [Compound 1-2, N-((2S,3S)-2-(2-fluoro-3-((1-(trifluoromethyl)cyclopropyl)ethynyl)benzyl)-1-((R)-oxetane-2-carbonyl)pyrrolidin-3-yl)methanesulfonamide]",,≥ 90,
"CCNC(=O)N1CC[C@H](NS(C)(=O)=O)[C@@H]1Cc1cccc(C#CC2(C)CC2)c1F [Compound 1-6, (2S,3S)—N-ethyl-2-(2-fluoro-3-((1-methylcyclopropyl)ethynyl)benzyl)-3-(methylsulfonamido)pyrrolidine-1-carboxamide]",,≥ 90,
"CS(=O)(=O)N[C@H]1CCN(C(=O)N2CCC2)[C@H]1Cc1cccc(C#CC2CCC2)c1F [Compound 1-7, N-((2S,3S)-1-(azetidine-1-carbonyl)-2-(3-(cyclobutylethynyl)-2-fluorobenzyl)-pyrrolidin-3-yl)methanesulfonamide]",,≥ 90,
"CC1(C#Cc2cccc(C[C@H]3[C@@H](NS(C)(=O)=O)CCN3C(=O)N3CCC3)c2F)CC1 [Compound 1-8, N-((2S,3S)-1-(azetidine-1-carbonyl)-2-(2-fluoro-3-((1-methylcyclopropyl)-ethynyl)benzyl)pyrrolidin-3-yl)methanesulfonamide]",0.001 to 0.01,≥ 90,
COC(=O)N1CCC[C@H](NS(C)(=O)=O)[C@@H]1CO[C@H]1CC[C@@H](c2ccccc2)CC1 [TAK-925],,,"wakefulness (mice; subcutaneous, WT mice): modestly increases wakefulness"
"orexin A: orexin peptide cleaved from prepro-orexin; 10 nM human orexin A (Tocris) defines 100% agonist activity (QPLPDCCRQKTCSCRLYELLHGAGNHAAGILTL; ends and bridges not checked; cysteine pairing not given here; UniProt O43612 34-66, looked up)",,,cataplexy-like behavior (mice; [2]): decreases cataplexy-like behavior; time spent awake (mice; [2]): increase time spent awake
